Assay: Inhibition of chemR23 expressed in human CAL1 cells assessed as reduction in chemerin-induced chemotaxis incubated for 4 hrs by cell counting based CellTiter-Glo assay

- IC50: 380 nM
Structure (SMILES): CCCCN(c1nc2cc(C(=O)NC)ccc2o1)[C@H](C)c1ccc(-c2ccccc2-c2nnn[nH]2)cc1
